System: KRAS-mutant PDC complex spheroid viability
Experiment: Anticancer human tumor 186277-243-T-J2-PDC patient-derived colon adenocarcinoma cell line growth inhibition [KRAS2]
Conditions: for IC50: curve of first compound; for viability, T/C: stronger effect = lower value
Source text: Multicellular complex tumor spheroid response to RAS pathway inhibitors in combination with a targeted agents in patient-derived cell lines with oncogenic KRAS variants from multiple cancer types
A high-throughput screen of multi-cell type tumor spheroids was designed to identify active combinations of targeted small molecules and KRAS pathway inhibitors. Complex spheroids include a stromal component modeled by human endothelial cells (HUVEC) and fibroblasts modeled by human mesenchymal stem cells (MSCs). The concentration ranges selected for each drug and investigational agent were based upon clinically achievable concentrations if the clinical Cmax of the agent was known.
Compounds. The drugs and investigational agents: BI-3406 (NSC825286), BAY-293 (NSC824723), batoprotafib (TNO155; NSC825523), sotorasib (AMG 510; NSC818433), MRTX1257 (NSC819558), elimusertib (BAY 1895344; NSC800525), molibresib (GSK525762; NSC774829), temuterkib (LY3214996; NSC803410), venetoclax (NSC766270), alisertib (NSC759677), olaparib (NSC753686), talazoparib (NSC767125), erdafitinib (NSC781556), ipatasertib (NSC767898), cabozantinib (NSC761068), nintedanib (NSC756659), abemaciclib (NSC768073), docetaxel (NSC628503), trametinib (NSC758246), and sapanisertib (NSC764658) were obtained from the National Cancer Institute (NCI) Developmental Therapeutics Program Chemical Repository. The FDA-approved anticancer drug set is available from the Developmental Therapeutics Program. […] The stock solutions were prepared in dimethyl sulfoxide (DMSO, Sigma-Aldrich, St. Louis, MO, cat. D2650) at 800-fold the tested concentration and stored at -70 degrees C prior to their use. All drugs and investigational agents were tested over a range starting from a high concentration at or near the clinical Cmax and decreasing in half-log increments. If the clinical Cmax for an agent had not been determined, the highest concentration tested was 10 microM.
Cell Culture. All cells were maintained in an incubator at 37 degrees C and 5% CO2 with 95% humidity. The PDC lines were cultured according to standard operating procedures established by the NCI PDMR (https://pdmr.cancer.gov/sops/default.htm). Briefly, all PDCs were thawed and cultured in Matrigel-coated flasks prepared with a working solution of 1X Ham's F-12 nutrient mix, without supplementation (Invitrogen, Waltham, MA, cat. 11765054), 100 U/mL penicillin-streptomycin (Invitrogen, cat. 15140122), and 2.5% Matrigel (Corning Inc., Corning, NY, cat. 354248) for the first three passages. All PDCs were cultured in complete DMEM/F-12 media containing advanced DMEM/F-12 (Invitrogen, cat. 12634028), 4.9% defined fetal bovine serum, heat inactivated (HyClone Laboratories Inc., Logan, UT, cat. SH30070.03HI), 389 ng/mL hydrocortisone (Sigma-Aldrich, cat. H4001), 9.7 ng/mL human EGF recombinant protein (Invitrogen, cat. PHG0313), 23.4 microg/mL adenine (Sigma-Aldrich, cat. A2786), 97.3 U/mL penicillin-streptomycin (Invitrogen, cat. 15140122), 1.9 mM L-glutamine (Invitrogen, cat. 25030081), and 9.7 microM Y-27632 dihydrochloride (Tocris Bioscience, Bristol, United Kingdom, cat. 1254). The PDCs were cultured in complete DMEM/F12 media without 9.7 microM Y-27632 dihydrochloride for at least two passages prior to the screen. The established cell line HOP-62 was cultured in RPMI 1640 medium, HEPES (Invitrogen, cat. 22400105) with 10% defined fetal bovine serum (HyClone Laboratories Inc., cat. SH30070.03) and 2 mM L-glutamine (Invitrogen, cat. 25030081). The pooled donor HUVEC were cultured in endothelial cell growth medium 2 (PromoCell, Heidelberg, Germany, cat. C-22011) and the hMSC were cultured in mesenchymal stem cell growth medium 2 (PromoCell, cat. C-28009). For all experiments, HUVEC and hMSC were used at passages </=5, while the malignant cell lines were used at passages </=15. […]

[1] = second compound 0.1 µM, first compound 0.0316 µM
[2] = second compound 0.1 µM, first compound 0.1 µM
[3] = second compound 0.316 µM, first compound 0.0316 µM
[4] = second compound 0.316 µM, first compound 0.1 µM
[5] = second compound 1 µM, first compound 0.0316 µM
[6] = second compound 1 µM, first compound 0.1 µM
[7] = second compound 3.16 µM, first compound 0.0316 µM
[8] = second compound 3.16 µM, first compound 0.1 µM
[9] = second compound 10 µM, first compound 0.0316 µM
[10] = second compound 10 µM, first compound 0.1 µM
[11] = second compound 0.1 µM, first compound 0.316 µM
[12] = second compound 0.1 µM, first compound 1 µM
[13] = second compound 0.1 µM, first compound 3.16 µM
[14] = second compound 0.1 µM, first compound 10 µM
[15] = second compound 0.316 µM, first compound 0.316 µM
[16] = second compound 0.316 µM, first compound 1 µM
[17] = second compound 0.316 µM, first compound 3.16 µM
[18] = second compound 0.316 µM, first compound 10 µM
[19] = second compound 1 µM, first compound 0.316 µM
[20] = second compound 1 µM, first compound 1 µM
[21] = second compound 1 µM, first compound 3.16 µM
[22] = second compound 1 µM, first compound 10 µM
[23] = second compound 3.16 µM, first compound 0.316 µM
[24] = second compound 3.16 µM, first compound 1 µM
[25] = second compound 3.16 µM, first compound 3.16 µM
[26] = second compound 3.16 µM, first compound 10 µM
[27] = second compound 10 µM, first compound 0.316 µM
[28] = second compound 10 µM, first compound 1 µM
[29] = second compound 10 µM, first compound 3.16 µM
[30] = second compound 10 µM, first compound 10 µM
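Wherever viability, T/C is given: viability read after seven days of compound exposure; 100% = DMSO vehicle-treated spheroids so lower means less viable.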

SMILES	IC50 (second compound 0.1 µM)	IC50 (second compound 0.316 µM)	IC50 (second compound 1 µM)	IC50 (second compound 3.16 µM)	IC50 (second compound 10 µM)	viability, T/C [1]	viability, T/C [2]	viability, T/C [3]	viability, T/C [4]	viability, T/C [5]	viability, T/C [6]	viability, T/C [7]	viability, T/C [8]	viability, T/C [9]	viability, T/C [10]	viability, T/C [11]	viability, T/C [12]	viability, T/C [13]	viability, T/C [14]	viability, T/C [15]	further results
CC(C)n1nc(-c2ccc3oc(N)nc3c2)c2c(N)ncnc21 + C=CC(=O)N1CCN(c2nc(=O)n(-c3c(C)ccnc3C(C)C)c3nc(-c4c(O)cccc4F)c(F)cc23)C(C)C1	0.0126 µM	0.0176 µM	0.00905 µM	0.00466 µM	< 0.000316 µM	32.7%	19.5%	34.2%	18.9%	27.3%	20.1%	20.1%	13.9%	14.7%	7.97%						viability, T/C (second compound 0.1 µM, first compound 0.000316 µM): 94.8%; viability, T/C (second compound 0.1 µM, first compound 0.001 µM): 93.1%; viability, T/C (second compound 0.1 µM, first compound 0.00316 µM): 86.1%; viability, T/C (second compound 0.1 µM, first compound 0.01 µM): 52.6%; viability, T/C (second compound 0.316 µM, first compound 0.000316 µM): 113%; viability, T/C (second compound 0.316 µM, first compound 0.001 µM): 103%; viability, T/C (second compound 0.316 µM, first compound 0.00316 µM): 87.7%; viability, T/C (second compound 0.316 µM, first compound 0.01 µM): 65.6%; viability, T/C (second compound 1 µM, first compound 0.000316 µM): 97.5%; viability, T/C (second compound 1 µM, first compound 0.001 µM): 107%; viability, T/C (second compound 1 µM, first compound 0.00316 µM): 75.8%; viability, T/C (second compound 1 µM, first compound 0.01 µM): 48.9%; viability, T/C (second compound 3.16 µM, first compound 0.000316 µM): 98%; viability, T/C (second compound 3.16 µM, first compound 0.001 µM): 89.4%; viability, T/C (second compound 3.16 µM, first compound 0.00316 µM): 58.6%; viability, T/C (second compound 3.16 µM, first compound 0.01 µM): 31.1%; viability, T/C (second compound 10 µM, first compound 0.000316 µM): 45.9%; viability, T/C (second compound 10 µM, first compound 0.001 µM): 44.6%; viability, T/C (second compound 10 µM, first compound 0.00316 µM): 34.7%; viability, T/C (second compound 10 µM, first compound 0.01 µM): 16.9%
CC1(C)CCC(CN2CCN(c3ccc(C(=O)NS(=O)(=O)c4ccc(NCC5CCOCC5)c([N+](=O)[O-])c4)c(Oc4cnc5[nH]ccc5c4)c3)CC2)=C(c2ccc(Cl)cc2)C1 + C=CC(=O)N1CCN(c2nc(=O)n(-c3c(C)ccnc3C(C)C)c3nc(-c4c(O)cccc4F)c(F)cc23)C(C)C1	1.89 µM	2.1 µM	1.95 µM	1.69 µM	0.373 µM	107%	89.6%	97.7%	104%	97.8%	97.9%	99.9%	110%	61.1%	69.4%	90.8%	108%	10.6%	0.45%	102%	viability, T/C [16]: 98.5%; viability, T/C [17]: 23.3%; viability, T/C [18]: 1.48%; viability, T/C [19]: 94.1%; viability, T/C [20]: 106%; viability, T/C [21]: 14.3%; viability, T/C [22]: 0.49%; viability, T/C [23]: 96.7%; viability, T/C [24]: 85%; viability, T/C [25]: 8.01%; viability, T/C [26]: 0.76%; viability, T/C [27]: 48.6%; viability, T/C [28]: 32%; viability, T/C [29]: 1.91%; viability, T/C [30]: 0.62%
COc1cc2nccc(Oc3ccc(NC(=O)C4(C(=O)Nc5ccc(F)cc5)CC4)cc3)c2cc1OC + C=CC(=O)N1CCN(c2nc(=O)n(-c3c(C)ccnc3C(C)C)c3nc(-c4c(O)cccc4F)c(F)cc23)C(C)C1	1.88 µM	1.77 µM	1.32 µM	0.823 µM	0.101 µM	95.2%	94.8%	93%	85.5%	98%	92.4%	94.5%	103%	49.9%	52.7%	100%	93.7%	13.1%	15.4%	98.2%	viability, T/C [16]: 86.1%; viability, T/C [17]: 12.3%; viability, T/C [18]: 14%; viability, T/C [19]: 101%; viability, T/C [20]: 61.8%; viability, T/C [21]: 12.4%; viability, T/C [22]: 13.7%; viability, T/C [23]: 91.2%; viability, T/C [24]: 41.8%; viability, T/C [25]: 9.95%; viability, T/C [26]: 11.2%; viability, T/C [27]: 32.3%; viability, T/C [28]: 9.14%; viability, T/C [29]: 2.99%; viability, T/C [30]: 3.53%

From PubChem BioAssay AID1963875 (Molecular Pharmacology Branch, DTP, NCI, 2024)
